Results taken from EPA's ToxRefDB 2.

Legend:
dog [1] = settings: Sub-acute repeat dose toxicity; beagle; Oral; Gavage/Intubation; dose end: 29 day; group: systemic; systemic / clinical chemistry / hepatic mixed function oxidase (mfo) assay / hepatic mixed function oxidase (mfo) assay + systemic / in life…
rat [2] = settings: Sub-acute repeat dose toxicity; sprague dawley; Oral; Gavage/Intubation; dose end: 9 day; group: systemic; systemic / in life observation / body weight / body weight gain + systemic / in life observation / food consumption / food consumption
dog [3] = settings: Subchronic oral toxicity in nonrodent, beagle, Gavage/Intubation, dose end: 90 day, group: systemic
dog [4] = settings: Sub-acute repeat dose toxicity, beagle, Oral, Gavage/Intubation, dose end: 5 day, group: systemic
rabbit [5] = settings: Sub-acute repeat dose toxicity; new zealand white; Oral; Gavage/Intubation; dose end: 5 day; group: systemic; systemic / in life observation / body weight / body weight + systemic / in life observation / clinical signs / altered breathing rate + …
rat [6] = settings: Sub-acute repeat dose toxicity, sprague dawley, Oral, Gavage/Intubation, dose end: 29 day, group: systemic
dog [7] = settings: Sub-acute repeat dose toxicity; beagle; Oral; Gavage/Intubation; dose end: 5 day; group: systemic; systemic / in life observation / clinical signs / abnormal feces + systemic / in life observation / clinical signs / emesis
rabbit [8] = settings: Prenatal developmental toxicity study, new zealand white, Oral, Gavage/Intubation, dose end: 19 GD
rat [9] = settings: Fertility (Segment I), Oral, Gavage/Intubation, dose end: 1 generation, group: parental
primate [10] = settings: Sub-acute repeat dose toxicity, Oral, Gavage/Intubation, dose end: 10 day, group: systemic
rat [11] = settings: Sub-acute repeat dose toxicity, sprague dawley, Oral, Gavage/Intubation, dose end: 14 day, group: systemic
rat [12] = settings: Sub-acute repeat dose toxicity; sprague dawley; Oral; Gavage/Intubation; dose end: 29 day; group: systemic; systemic / in life observation / clinical signs / salivation
rat [13] = settings: Chronic toxicity, sprague dawley, Oral, Gavage/Intubation, dose end: 180 day, group: systemic
rat [14] = settings: Fertility (Segment I), Oral, Gavage/Intubation, dose end: 1 generation, group: parental; remark: listed apart in the source
rabbit [15] = settings: Sub-acute repeat dose toxicity, Oral, Gavage/Intubation, dose end: 5 day, group: systemic
primate [16] = settings: Sub-acute repeat dose toxicity, Oral, Gavage/Intubation, dose end: 28 day, group: systemic
rat [17] = settings: Prenatal developmental toxicity study, sprague dawley, Oral, Gavage/Intubation, dose end: 18 GD
[18] = systemic / clinical chemistry / cholesterol / cholesterol + systemic / organ weight / liver / absolute + systemic / pathology microscopic / …
[19] = systemic / in life observation / clinical signs / abnormal feces + systemic / organ weight / liver / absolute + systemic / pathology …
[20] = systemic / in life observation / clinical signs / abnormal feces
[21] = systemic / in life observation / clinical signs / abnormal feces + systemic / in life observation / clinical signs / emesis
[22] = systemic / clinical chemistry / 5' nucleotidase / 5' nucleotidase + systemic / clinical chemistry / albumin / albumin + systemic / clinical …
[23] = group: developmental, systemic / in life observation / body weight / fetal weight
[24] = group: maternal, systemic / in life observation / body weight / body weight + systemic / in life observation / body weight / body weight gain + systemic / in…
[25] = systemic / in life observation / clinical signs / abnormal respiratory sounds + systemic / in life observation / clinical signs / fur (…
[26] = systemic / in life observation / clinical signs / salivation
[27] = systemic / in life observation / clinical signs / abnormal feces + systemic / in life observation / clinical signs / salivation
[28] = systemic / in life observation / clinical signs / abnormal feces + systemic / in life observation / clinical signs / salivation + systemic…
[29] = systemic / in life observation / body weight / body weight gain + systemic / in life observation / clinical signs / dehydration + systemic…
[30] = systemic / clinical chemistry / 5' nucleotidase / 5' nucleotidase + systemic / clinical chemistry / alanine aminotransferase (alt/sgpt) / …
[31] = systemic / in life observation / body weight / body weight gain + systemic / in life observation / food consumption / food consumption
[32] = systemic / in life observation / clinical signs / fur (altered appearance) + systemic / in life observation / clinical signs / salivation
[33] = systemic / in life observation / body weight / body weight + systemic / in life observation / clinical signs / abnormal feces + systemic / …
[34] = systemic / clinical chemistry / [other] / [other] + systemic / in life observation / clinical signs / abnormal feces + systemic / in life …
[35] = group: developmental, developmental / developmental malformation / bone / delayed ossification + systemic / in life observation / body weight / fetal weight
[36] = group: maternal, systemic / in life observation / clinical signs / salivation
[37] = group: maternal, systemic / in life observation / clinical signs / salivation + systemic / in life observation / body weight / body weight gain

## NC(=O)N(O)[C@@H]1C=C[C@H](Oc2cccc(Oc3ccc(F)cc3)c2)C1
Dog [1]
  LEL: 125 mg/kg/day
  LOAEL: > 125 mg/kg/day
  NEL: 25 mg/kg/day
  NOAEL: ≥ 125 mg/kg/day
Rat [2]
  LEL: 400 mg/kg/day
  LOAEL: > 400 mg/kg/day
  NEL: 200 mg/kg/day
  NOAEL: ≥ 400 mg/kg/day
Dog [3]; [18]
  NEL: 5 mg/kg/day
Dog [3]; [19]
  LOAEL: > 125 mg/kg/day
  NOAEL: ≥ 125 mg/kg/day
Dog [3]; systemic / organ weight / liver / absolute
  LEL: 25 mg/kg/day
Dog [4]; [20]
  LEL: 5 mg/kg/day
  NEL: < 5 mg/kg/day
Dog [4]; [21]
  LOAEL: > 125 mg/kg/day
  NOAEL: ≥ 125 mg/kg/day
Rabbit [5]
  LEL: 400 mg/kg/day
  LOAEL: > 400 mg/kg/day
  NEL: 40 mg/kg/day
  NOAEL: ≥ 400 mg/kg/day
Rat [6]; [22]
  LOAEL: > 400 mg/kg/day
  NEL: 10 mg/kg/day
  NOAEL: ≥ 400 mg/kg/day
Rat [6]; [18]
  LEL: 40 mg/kg/day
Dog [7]
  LEL: 250 mg/kg/day
  LOAEL: > 500 mg/kg/day
  NEL: < 250 mg/kg/day
  NOAEL: ≥ 500 mg/kg/day

## CC(C)(O)c1coc(S(=O)(=O)NC(=O)Nc2c3c(cc4c2CCC4)CCC3)c1
Rabbit [8]; [23]
  LEL: 250 mg/kg/day
  LOAEL: > 250 mg/kg/day
  NOAEL: ≥ 250 mg/kg/day
Rabbit [8]; [24]
  LEL: 250 mg/kg/day
  LOAEL: > 250 mg/kg/day
  NEL: 100 mg/kg/day
  NOAEL: ≥ 250 mg/kg/day
Rat [9]; [25]
  LOAEL: > 500 mg/kg/day
  NOAEL: ≥ 500 mg/kg/day
Rat [9]; [26]
  LEL: 25 mg/kg/day
  NEL: < 25 mg/kg/day
Primate [10]; [27]
  LEL: 10 mg/kg/day
  NEL: < 10 mg/kg/day
Primate [10]; [28]
  LOAEL: > 200 mg/kg/day
  NOAEL: ≥ 200 mg/kg/day
Rat [11]; [29]
  LOAEL: > 1000 mg/kg/day
  NOAEL: ≥ 1000 mg/kg/day
Rat [11]; [26]
  LEL: 100 mg/kg/day
  NEL: < 100 mg/kg/day
Rat [12]
  LEL: 100 mg/kg/day
  LOAEL: > 500 mg/kg/day
  NEL: 10 mg/kg/day
  NOAEL: ≥ 500 mg/kg/day
Rat [13]; [30]
  LOAEL: > 500 mg/kg/day
  NOAEL: ≥ 500 mg/kg/day
Rat [13]; [31]
  LEL: 25 mg/kg/day
  NEL: < 25 mg/kg/day
Rat [14]; [32]
  LOAEL: > 500 mg/kg/day
  NOAEL: ≥ 500 mg/kg/day
Rat [14]; [26]
  LEL: 25 mg/kg/day
  NEL: < 25 mg/kg/day
Rabbit [15]; [33]
  LOAEL: > 500 mg/kg/day
  NEL: 50 mg/kg/day
  NOAEL: ≥ 500 mg/kg/day
Rabbit [15]; systemic / in life observation / food consumption / food consumption
  LEL: 250 mg/kg/day
Primate [16]; [34]
  LOAEL: > 200 mg/kg/day
  NEL: 2 mg/kg/day
  NOAEL: ≥ 200 mg/kg/day
Primate [16]; [20]
  LEL: 50 mg/kg/day
Rat [17]; [35]
  LEL: 500 mg/kg/day
  LOAEL: > 500 mg/kg/day
  NOAEL: ≥ 500 mg/kg/day
Rat [17]; [36]
  LEL: 50 mg/kg/day
  NEL: < 50 mg/kg/day
Rat [17]; [37]
  LOAEL: > 500 mg/kg/day
  NOAEL: ≥ 500 mg/kg/day
